No end group written: not given here.
Experiments:
U87MG glioblastoma cells [1] = assay: Blocking of U87MG cell adhesion to fibronectin-coated plates; assay type: cell-based
Description: (§1) The present engineered peptides may be used in a variety of ways. If the peptides are attached to a surface, they may be used to attract/recruit cells to grow on the surface. For example, the present peptides may be applied to prosthetic devices, implants, bone grafts, and the like to promote tissue growth and healing at the site. They may be attached to culture dishes and promote attachment and differentiation of cells in culture. In addition, the present engineered peptides may be used to modulate cell binding to selected integrins such as α5β1, αvβ3 and αvβ5, particularly αvβ3, by adding the peptides to a cell culture to prevent cells expressing these integrins from adhering to a substrate. […] Also, the present 2.5F, 2.5D and 1.5B peptides were tested for blocking adhesion of U87MG glioblastoma cells to fibronectin-coated plates.
(§2) In another experiment, the ability of engineered knottin peptides to block U87MG cell adhesion to vitronectin- and fibronectin-coated microtiter plates. Vitronectin is a natural ligand for several integrins, including αvβ3 and αvβ5. The RGD-containing peptides were all able to inhibit U87MG cell adhesion to vitronectin-coated plates in a dose-responsive manner. […] Fibronectin also binds to several integrins, (including αvβ3 and α5β1), but the α5β1 integrin receptor is generally selective for fibronectin.

[2] = Stability in human serum at 37° C., reversed-phase HPLC; assay type: in vitro ADME
Method: (§3) The stability of the knottin peptide 2.5D upon exposure to human or mouse serum at 37° C. was measured. Reversed-phase HPLC was used to quantify the amount of intact knottin peptide remaining at various times post incubation.
Nonradioactive mock-PET tracers are incubated with mouse and human serum for various time points at 37° C., and aliquots are acidified and flash frozen. The aliquots are then thawed and microcentrifuged at high speeds to remove aggregates. The soluble fraction is passed through a Sep-Pak C18 cartridge (Waters Corp), and rinsed several times with water containing 0.1% TFA (solvent A). The cartridge-bound PET-tracers are eluted with 90% acetonitrile containing 0.1% TFA, lyophilized, and resuspended in solvent A. The solution is passed through a NANOSEP (Pall Corp) 10 kDa cutoff filter and analyzed by reversed-phase HPLC to determine the amount of polypeptide-conjugate remaining.

U87MG glioblastoma cells [3] = assay: Blocking of U87MG cell adhesion to vitronectin-coated plates; assay type: cell-based; details: vitronectin-coated plates
Description: as §1, §2
Whether the engineered AgRP peptides could block vitronectin-mediated adhesion to the U87MG cells was tested using an analogous assay. […] The AgRP peptides may not effectively block U87MG adhesion compared to the K562-αvβ3 cells because the αvβ5 integrins co-expressed on the surface of the U87MG cells could also contribute to vitronectin-mediated adhesion and compensate for the loss of αvβ3 integrin function.

U87MG tumor = assay: MicroPET imaging and biodistribution of radiolabeled peptides in U87MG tumor-bearing mice; assay type: in vivo, mouse; details: 64Cu-DOTA-labeled peptides, compared to 64Cu-DOTA-c(RGDyK)
Method: MicroPET imaging of tumor-bearing mice is performed on a microPET R4 rodent model scanner (Concorde Microsystems Inc, Knoxyille, Tenn.). U87MG tumor bearing mice are injected with PET imaging agent via the tail vein. At various times post injection, the mice are anesthetized with 2% isoflurane, and 10 min static scans are obtained. Images are reconstructed by a two-dimensional ordered expectation maximum subset algorithm as previously described. Regions of interest (ROI) are drawn over the tumor on decay corrected whole body images and ROI derived % injected dose per gram of tissue is determined. Statistical analysis is performed using the student's t-test for unpaired data. A 95% confidence level is used to determine statistical significance.
Female athymic mice bearing U87MG tumors were injected with 80-150 μCi of ^64Cu-DOTA-knottin 2.5D or 7-9 μCi of [^18F]-FB-E[knottin 2.5D]. Static images were taken at various timepoints post injection using a microPET R4 rodent model scanner (Concorde Microsystems Inc, Knoxyille, Tenn.). […] Uptake was also observed in the kidney as both probes cleared through the bladder.
Mice are sacrificed by exanguinations at various time points postinjection. Blood, tumor and the major organs and tissues are collected, wet-weighed and measured in a γ-counter. The % injected dose per gram is determined for each sample. For each mouse, radioactivity of the tissue samples is calibrated against a known aliquot of the injectate. Values are reported as the mean±standard deviation.
The following Table 10 quantifies the ^64Cu-DOTA knottin uptake by direct tissue sampling of the mice up to 24 hours post injection and is reported in % ID (percent injected dose)/gram. Similar results were obtained with [^18F]-FB-E[knottin 2.5D].
A U87MG glioblastoma xenograft mouse model was used. U87MG cells were maintained at 37° C. in a humidified atmosphere containing 5% CO2 in Dulbecco's modified eagle medium, 10% heat-inactivated fetal bovine serum, and penicillin-streptomycin (all from Invitrogen). Animal procedures were carried out according to a protocol by Stanford University Administrative Panels on Laboratory Animal Care. Female athymic nude mice (nu/nu), obtained at 4-6 weeks of age (Charles River Laboratories, Inc.), were injected subcutaneously in the right or left shoulder with 2×10^7 U87MG glioblastoma cells suspended in 100 μL of PBS. Mice were used for in vivo imaging studies when their tumors reached approximately 8 to 10 millimeters in diameter.
U87MG tumor-bearing mice (n=3 or more for each probe) were injected with ˜100 μCi of ^64Cu-DOTA-conjugated peptides via the tail vein and imaged with a microPET R4 rodent model scanner (Siemens Medical) using 3 or 5 min static scans. […] Images were reconstructed by a two dimensional ordered expectation maximum subset algorithm and calibrated as previously described (Wu, Y, Zhang, X, Xiong, Z, et al. microPET imaging of glioma integrin {alpha}v{beta}3 expression using (64)Cu-labeled tetrameric RGD peptide. J Nucl Med 2005; 46:1707-18). ROIs were drawn over the tumor on decay-corrected whole body images using ASIPro VM software (Siemens Medical). The mean counts per pixel per minute were obtained from the ROI and converted to counts per milliliter per minute with a calibration constant. ROIs were converted to counts/g/min, and % ID/g values were determined assuming a tissue density of 1 g/mL. No attenuation correction was performed.

in vitro = in vitro ADME; details: mouse serum, 37° C., read-out: peptide remaining
Description: Their larger size (˜3-4 kDa) and enhanced affinity compared to RGD-based cyclic peptides confer enhanced pharmacokinetics and biodistribution for molecular imaging and therapeutic applications. This is described in connection with FIG. 8. These RGD-miniproteins are small enough to allow for chemical synthesis and site-specific conjugation of imaging probes, radioisotopes, or chemotherapeutic agents. Furthermore, they can easily be chemically modified to further improve in vivo properties if necessary. […] The tumor is indicated by an arrow. The near infrared fluorescent Cy5.5 label study provides guidance for the preparation of these polypeptides as ^18F and ^64Cu-labeled PET imaging probes. […]
as §3
Nonradioactive mock-PET tracers are incubated with mouse and human serum for various time points at 37° C., and aliquots are acidified and flash frozen. […] The cartridge-bound PET-tracers are eluted with 90% acetonitrile containing 0.1% TFA, lyophilized, and resuspended in solvent A. The solution is passed through a NANOSEP (Pall Corp) 10 kDa cutoff filter and analyzed by reversed-phase HPLC to determine the amount of polypeptide-conjugate remaining.

αvβ5 integrin = αvβ5 integrin (Homo sapiens, UniProt P06756+P18084); assay: Competition of 125I-echistatin to detergent-solubilized plate-coated integrin; assay type: binding; details: 0.06 nM 125I echistatin, 5 nM and 50 nM peptide
Method: (§4) FIG. 10A through FIG. 10D is a series of histograms showing binding specificities to integrins αvβ3, αvβ5, α5β1, and αiibβ3 for engineered EETI-RGD peptides compared to controls. Error bars represent experiments performed in triplicate. Competition binding of 0.06 nM ^125I echistatin with 5 nM (black bars) and 50 nM (grey bars) unlabeled peptide to plate-coated integrins was measured. […] The engineered peptides have very little binding to αiibβ3 integrin.
(§5) This was done by competition of ^125I-echistatin to detergent-solubilized integrin receptors coated onto microtiter plates (see FIG. 10). […] This is consistent with previous studies which have shown αv integrin receptors can accommodate a wide range of RGD-containing cyclic structures. […] However, since α5β1 integrins are expressed on many tumors and are all involved in mediating angiogenesis and metastasis, a broad spectrum agent that targets all three integrins will be useful for diagnostic and therapeutic applications. With the exception of echistatin, all of the RGD-containing peptides bound weakly to the αiibβ3 receptor, showing the specificity of the present peptides for the αv and α5-containing integrin heterodimers. This characteristic is valuable for molecular imaging and therapeutic applications, since binding to αiibβ3 on platelet cells prevents blood clotting and would lead to non-specific in vivo effects.

αvβ3 integrin = αvβ3 integrin (Homo sapiens, UniProt P05106+P06756); assay: as above; assay type: binding; details: 0.06 nM 125I echistatin, 5 nM and 50 nM peptide
Method: as §4, §5

α5β1 integrin = α5β1 integrin (Homo sapiens, UniProt P05556+P08648); assay: as above; assay type: binding; details: 0.06 nM 125I echistatin, 5 nM and 50 nM peptide
Method: as §4, §5

[4] = test system: fibronectin cell adhesion; details: cited from earlier work
αvβ3 and αvβ5 integrins = details: inhibiting cell adhesion mediated by αvβ3 and αvβ5 integrins; cited from earlier work
[5] = target: T1, αvβ3 integrin on U87MG glioblastoma cells (Homo sapiens, UniProt P05106+P06756); assay: 125I-echistatin competition binding to U87MG glioblastoma cells
T1 construct: host or cells: U87MG glioblastoma cells
Method: FIG. 9 is a graph showing normalized competition plotted against peptide concentration in an integrin-binding assay on U87MG glioblastoma cells.
U87MG glioblastoma cells, which express ˜10^5 αvβ3 integrin receptors per cell, were used for these studies. […] An EETI-based polypeptide with a scrambled RDG amino acid sequence, designated FN-RDG, served as a negative control.
Half-maximal inhibitory concentrations (IC50) […] of data measured on at least three separate days. Data for unlabeled and Cy5.5-labeled peptides are shown. Site-specific labeling of RGD miniproteins with a near-infrared optical imaging probe: The free N-terminal amine of our polypeptides was used for site-specific attachment of Cy5.5, a near infrared imaging probe.
An αvβ3 integrin receptor binding assay is performed to determine the relative affinities of the mock-PET tracers compared to their unlabeled polypeptides. Briefly, 2×10^5 U87MG glioblastoma cells are incubated with 0.06 nM ^125I-echistatin in integrin binding buffer (25 mM Tris-HCl, pH 7.4, 150 mM NaCl2 1 mM CaCl2 1 mM MgCl2, 1 mM MnCl2, 0.1% BSA), in the presence of increasing concentrations of mock-PET tracers at room temperature. After incubation for 3 h, cells are pelleted by centrifugation at 1500 RPM and washed three times in binding buffer to remove unbound ligands. The radioactivity remaining in the cell pellet is measured by γ counting. IC50 values are determined by plotting the % competition and using a four-point binding equation (Kaleidagraph) to fit the data.

αiibβ3 integrin = αiibβ3 integrin (Homo sapiens, UniProt P05106+P08514); assay: Competition of 125I-echistatin to detergent-solubilized plate-coated integrin; assay type: binding; details: 0.06 nM 125I echistatin, 5 nM and 50 nM peptide
Method: as §4, §5

α5β1 expressing cells = details: inhibiting attachment of α5β1 expressing cells to fibronectin; cited from earlier work

## CC(C)[C@@H]1NC(=O)[C@@H]2CSSC[C@H](NC(=O)CN)C(=O)N3CCC[C@H]3C(=O)N[C@@H](CCC(N)=O)C(=O)NCC(=O)N[C@@H](CCCNC(=N)N)C(=O)NCC(=O)N[C@@H](CC(=O)O)C(=O)N[C@@H](Cc3c[nH]c4ccccc34)C(=O)N[C@@H](C)C(=O)N3CCC[C@H]3C(=O)N[C@@H]([C@@H](C)O)C(=O)N[C@@H](CO)C(=O)N[C@H]3CSSC[C@H](NC1=O)C(=O)NCC(=O)N1CCC[C@H]1C(=O)N[C@@H](CC(N)=O)C(=O)NCC(=O)N[C@@H](Cc1ccccc1)C(=O)N[C@H](C(=O)NCC(=O)O)CSSC[C@H](NC(=O)[C@H](CC(=O)O)NC(=O)[C@H](CO)NC(=O)[C@H](CC(=O)O)NC(=O)[C@H](CCC(N)=O)NC(=O)[C@H](CO)NC3=O)C(=O)N[C@@H](CCCNC(=N)N)C(=O)N[C@@H](C)C(=O)NCC(=O)N2 [2.5D]
U87MG glioblastoma cells [1]
  blocking of U87MG cell adhesion to fibronectin, in words: only echistatin and polypeptide 2.5F blocked adhesion
[2]; 24 h, read-out: peptide remaining
  remaining at 24 h: ~90%
[2]; 96 h
  peptide remaining: approximately 70%
U87MG glioblastoma cells [3]
  blocking of U87MG cell adhesion to vitronectin, in words: blocked adhesion better than controls
U87MG tumor
  liver uptake, in words: lower liver uptake
In vitro; 24 h
  remaining at 24 h: ~90%
In vitro; 96 h
  remaining at 96 h: ~70%
αvβ5 integrin
  binding to αvβ5 integrin, in words: strongest levels of binding
αvβ3 integrin
  binding to αvβ3 integrin, in words: strongest levels of binding
α5β1 integrin
  binding to α5β1 integrin, in words: only minimal binding

## GRGD
[4]
  IC50: 1080 µM

## ACDCRGDCFCG (disulfide (positions not given here); also: two disulfide bonds, pairing not given here)
αvβ3 and αvβ5 integrins
  fold more effective than comparable peptides with one disulfide bond: 20 fold
  fold more potent than linear RGD peptides: 200 fold

## FN-RDG: EETI-based polypeptide with a scrambled RDG amino acid sequence, negative control (GCVTGRDGSPASSCSQDSDCLAGCVCGPNGFCG)
U87MG glioblastoma cells [1]
  blocking of U87MG cell adhesion to fibronectin, in words: not able to inhibit
U87MG glioblastoma cells [3]
  blocking of U87MG cell adhesion to vitronectin, in words: not able to inhibit
[5]
  binding to U87MG cells / competition with 125I-echistatin, in words: not able to compete
αvβ5 integrin
  binding to αvβ5 integrin, in words: did not bind
αvβ3 integrin
  binding to αvβ3 integrin, in words: did not bind
α5β1 integrin
  binding to α5β1 integrin, in words: did not bind
αiibβ3 integrin
  binding to αiibβ3 integrin, in words: did not bind

## CRGDCL (also: cyclic)
α5β1 expressing cells
  fold more potent than linear RGD hexapeptides: 10 fold

Reference: US9265845B2, “Imaging methods using engineered integrin binding peptides” (The Board of Trustees of the Leland Stanford Junior …, priority 2006, dated 2016)
